{"source": "patent US6770269B1", "about": "“Cosmetic and dermatological light-protective formulations containing triazine derivatives and one or several esters of unbranched-chain carboxylic acids and branched-chain alcohols” (Beiersdorf AG, priority 1998, dated 2004)", "origin": "cited, not measured here", "data": [{"smiles": "CCCCC(CC)COC(=O)c1ccc(Nc2nc(Nc3ccc(C(=O)OCC(CC)CCCC)cc3)nc(Nc3ccc(C(=O)OCC(CC)CCCC)cc3)n2)cc1", "note": "(centres unmarked) [UVINUL7 T 150, tris(2-ethylhexyl) 4,4′,4″-(1,3,5-triazine-2,4,6-triyltriimino)trisbenzoate]", "values": [{"measurement": "corresponding dissolved, and therefore active, UV filter substance", "setting": "corresponds to the maximum solubility in known solvents", "result": "1-1.5 % by weight"}, {"measurement": "maximum amount of the filter that known solvents can dissolve", "setting": "known solvents (lipids), prior art", "result": "about 15 % by weight"}]}]}
